# Assays:
# PERK kinase = PERK kinase (Homo sapiens (Human), UniProt Q9NZJ5); assay: Biochemical assay for PERK (coupled pyruvate kinase/lactate dehydrogenase assay); settings: 1 mM ATP, rate from 2-3 h time frame
# Method in brief: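 Coupled pyruvate kinase/lactate dehydrogenase readout of ATP hydrolysis via NADH oxidation (A340), 10 nM PERK, 0.25 mg/mL myelin basic protein, 1 mM ATP, pH 7.5 Tris/MgCl2 buffer, 1% DMSO. Absorbance followed 6 h at 30° C; rate from the 2-3 h window, normalised to no-compound and known-inhibitor controls, IC50 fitted.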
# [1] = system: ATF4 in CCRF-CEM leukemia cells (PERK); assay: CCRF-CEM TG ATF4 ELISA, phenotypic assay for cellular inhibition of PERK preactivated by thapsigargin; type: cell-based; settings: Homo sapiens; Thapsigargin (1 μM) stimulated CCRF-CEM cells
# [2] = system: phospho-GCN2 (Thr899) in HCT116 colorectal cancer cells; assay: HCT116 amino acid starved (-AA) phospho-GCN2 assay (Western blot); type: cell-based; settings: Homo sapiens, HCT-116, 4 h, read-out: HCT116-AA pGCN2 Western Blot
# Method in brief: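 HCT116 cells switched to amino-acid-free EBSS (10% dialyzed FBS, 5.5 mM glucose, vitamins) with serial compound dilutions for 4 h at 37° C. Lysates Western blotted for phospho-GCN2 (Thr899), total GCN2, ATF4 and beta-actin; IC50 values derived from quantified bands.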
# PERK kinase, sequence (Q9NZJ5 other isoform, or with tags, fused parts or gaps): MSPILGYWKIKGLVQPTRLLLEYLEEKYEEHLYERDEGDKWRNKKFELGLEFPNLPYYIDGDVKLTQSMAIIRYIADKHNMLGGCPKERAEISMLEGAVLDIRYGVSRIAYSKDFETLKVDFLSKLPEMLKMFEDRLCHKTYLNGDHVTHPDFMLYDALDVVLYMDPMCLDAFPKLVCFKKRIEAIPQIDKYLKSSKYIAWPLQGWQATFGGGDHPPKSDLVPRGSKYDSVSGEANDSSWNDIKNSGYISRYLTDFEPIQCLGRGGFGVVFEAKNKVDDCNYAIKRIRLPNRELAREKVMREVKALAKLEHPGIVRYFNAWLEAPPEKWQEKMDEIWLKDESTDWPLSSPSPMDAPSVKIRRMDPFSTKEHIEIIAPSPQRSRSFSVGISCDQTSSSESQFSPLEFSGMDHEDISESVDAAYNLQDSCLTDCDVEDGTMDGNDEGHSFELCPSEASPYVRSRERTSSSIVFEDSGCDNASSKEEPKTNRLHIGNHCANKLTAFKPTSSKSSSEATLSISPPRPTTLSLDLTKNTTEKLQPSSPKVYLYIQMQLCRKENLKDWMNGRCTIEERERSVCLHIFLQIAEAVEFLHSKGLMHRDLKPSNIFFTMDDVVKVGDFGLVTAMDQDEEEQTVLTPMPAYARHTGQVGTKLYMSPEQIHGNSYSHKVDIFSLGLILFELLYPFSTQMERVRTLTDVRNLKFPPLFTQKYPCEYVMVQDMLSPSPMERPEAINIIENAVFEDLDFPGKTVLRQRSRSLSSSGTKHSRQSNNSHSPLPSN
structure (smiles),measurement,setting,value
CNc1ncc2cc(-c3cccc(NS(=O)(=O)c4cc(Cl)cnc4OC)c3F)c(NC)nc2n1 [Compound 16],IC50,PERK kinase,100 to 500 nM
same,IC50,[1],1000 to 10000 nM
same,IC50,[2],≤ 100 nM

# Reference: patent publication US11912668B2, “GCN2 and perk kinase inhibitors and methods of use thereof” (Deciphera Pharmaceuticals, LLC, priority 2020, dated 2024)
